Assay results: patent publication US8211928B2, “Hepatitis C virus inhibitors” (Bristol-Myers Squibb Company, priority 2009, dated 2012)
Where two headings read alike, the source gives them in different places.

Tested on: HCV 1b genotype
Assay: HCV replicon assay, 1b genotype
Format: cell-based
Conditions: Hepatitis C virus, HCV 1b genotype replicon
Procedure: An HCV Replion assay was utilized in the present disclosure, and was prepared, conducted and validated as described in commonly owned PCT/US2006/022197 and in O'Boyle et. al. Antimierob Agents Chemother. 2005 April; 49(4):1346-53. Assay methods incorporating luciferase reporters have also been used as described (Apath.com).
HCV-neo replicon cells and HCV replicon cells containing mutations in the NS5A region were used to test the currently described family of compounds. The compounds were determined to have more than 10-fold less inhibitory activity on cells containing mutations than wild-type cells. Thus, the compounds of the present disclosure can be effective in inhibiting the function of the HCV NS5A protein and are understood to be as effective in combinations as previously described in application PCT/US2006/022197 and commonly owned WO/04014852. Further, the compounds of the present disclosure can be effective against the HCV 1b genotype. It should also be understood that the compounds of the present disclosure can inhibit multiple genotypes of HCV. […] In one embodiment, compounds of the present disclosure are inhibitory versus 1a, 1b, 2a, 2b, 3a, 4a, and 5a genotypes. Activity ranges are as follows: A=>100 nM; B=1-100 nM; C=101-999 pM; and D=1-100 pM.

[1] = activity ranges, read-out: 1b EC50 in Range

## COC(=O)N[C@@H](C)C(=O)N1CCC[C@H]1C(=O)Nc1n[nH]c2cc(-c3ccc(-c4cnc([C@@H]5CCCN5C(=O)[C@H](C)NC(=O)OC)[nH]4)cc3)ccc12 [Example 22, (S)-1-((S)-2-Methoxycarbonylaminopropanoyl)-N-(6-(4-(2-((S)-1-((S)-2-methoxycarbonylaminopropanoyl)pyrrolidin-2-yl)-1H-imidazol-5-yl)phenyl)-1H-indazol-3-yl)pyrrolidine-2-carboxamide]
[1]
  EC50: 1 to 100 nM

## COCC[C@H](NC(=O)OC)C(=O)N1CCC[C@H]1C(=O)Nc1noc2ccc(-c3ccc(-c4cnc([C@@H]5CCCN5C(=O)[C@H](CCOC)NC(=O)OC)[nH]4)cc3)cc12 [Example 15]
[1]
  EC50: 1 to 100 nM

## COC(=O)N[C@@H](C(=O)N1CCC[C@H]1C(=O)Nc1noc2ccc(-c3ccc(-c4cnc([C@@H]5CCCN5C(=O)[C@H](NC(=O)OC)C(C)C)[nH]4)cc3)cc12)C(C)C [Example 16]
[1]
  EC50: > 100 nM

## COCC[C@H](NC(=O)OC)C(=O)N1CCC[C@H]1C(=O)Nc1n[nH]c2ccc(-c3ccc(-c4cnc([C@@H]5CCCN5C(=O)[C@H](CCOC)NC(=O)OC)[nH]4)cc3)cc12 [Example 32]
[1]
  EC50: 1 to 100 nM

## CCN(CC)[C@@H](C(=O)N1CCC[C@H]1C(=O)Nc1n[nH]c2cc(-c3ccc(-c4cnc([C@@H]5CCCN5C(=O)[C@@H](c5ccccc5)N(CC)CC)[nH]4)cc3)ccc12)c1ccccc1 [Example 23]
[1]
  EC50: 0.001 to 0.1 nM
read-out: 1b EC50
  EC50: 0.043 nM

## COC(=O)N[C@@H](C)C(=O)N1CCC[C@H]1C(=O)Nc1n[nH]c2ccc(-c3ccc(-c4cnc([C@@H]5CCCN5C(=O)[C@H](C)NC(=O)OC)[nH]4)cc3)cc12 [Example 29]
[1]
  EC50: > 100 nM

## COC(=O)N[C@@H](C(=O)N1CCC[C@H]1C(=O)Nc1n[nH]c2ccc(-c3ccc(-c4cnc([C@@H]5CCCN5C(=O)[C@H](NC(=O)OC)c5ccccc5)[nH]4)cc3)cc12)c1ccccc1 [Example 34]
[1]
  EC50: 1 to 100 nM

## COC(=O)N[C@H](C(=O)N1CCC[C@H]1C(=O)Nc1n[nH]c2cc(-c3ccc(-c4cnc([C@@H]5CCCN5C(=O)[C@@H](NC(=O)OC)C(C)C)[nH]4)cc3)ccc12)C(C)C [Example 24]
[1]
  EC50: 0.101 to 0.999 nM

## COC(=O)N[C@H](C(=O)N1CCC[C@H]1C(=O)Nc1n[nH]c2ccc(-c3ccc(-c4cnc([C@@H]5CCCN5C(=O)[C@@H](NC(=O)OC)C(C)C)[nH]4)cc3)cc12)C(C)C [Example 31]
[1]
  EC50: > 100 nM

## COC(=O)N[C@H](C(=O)N1CCC[C@H]1C(=O)Nc1noc2cc(-c3ccc(-c4cnc([C@@H]5CCCN5C(=O)[C@@H](NC(=O)OC)C(C)C)[nH]4)cc3)ccc12)C(C)C [Example 5]
[1]
  EC50: 0.101 to 0.999 nM

## COC(=O)N[C@H](C(=O)N1CCC[C@H]1C(=O)Nc1noc2ccc(-c3ccc(-c4cnc([C@@H]5CCCN5C(=O)[C@@H](NC(=O)OC)C(C)C)[nH]4)cc3)cc12)C(C)C [Example 13]
[1]
  EC50: 1 to 100 nM
read-out: 1b EC50
  EC50: 30.1 nM

## COC(=O)N[C@H](C(=O)N1CCC[C@H]1C(=O)Nc1n[nH]c2cc(-c3ccc(-c4cnc([C@@H]5CCCN5C(=O)[C@@H](NC(=O)OC)[C@@H](C)OC)[nH]4)cc3)ccc12)[C@@H](C)OC [Example 25]
[1]
  EC50: 1 to 100 nM

## CN(C)[C@@H](C(=O)N1CCC[C@H]1C(=O)Nc1noc2ccc(-c3ccc(-c4cnc([C@@H]5CCCN5C(=O)[C@@H](c5ccccc5)N(C)C)[nH]4)cc3)cc12)c1ccccc1 [Example 17]
[1]
  EC50: 1 to 100 nM

## CN(C)[C@@H](C(=O)N1CCC[C@H]1C(=O)Nc1n[nH]c2ccc(-c3ccc(-c4cnc([C@@H]5CCCN5C(=O)[C@@H](c5ccccc5)N(C)C)[nH]4)cc3)cc12)c1ccccc1 [Example 30]
[1]
  EC50: 1 to 100 nM

## CN(C)[C@@H](C(=O)N1CCC[C@H]1C(=O)Nc1noc2cc(-c3ccc(-c4cnc([C@@H]5CCCN5C(=O)[C@@H](c5ccccc5)N(C)C)[nH]4)cc3)ccc12)c1ccccc1 [Example 6]
[1]
  EC50: 0.101 to 0.999 nM

## COC(=O)N[C@H](C(=O)N1CCC[C@H]1C(=O)Nc1noc2cc(-c3ccc(-c4cnc([C@@H]5CCCN5C(=O)[C@@H](NC(=O)OC)[C@@H](C)OC)[nH]4)cc3)ccc12)[C@@H](C)OC [Example 8]
[1]
  EC50: 0.101 to 0.999 nM

## COC(=O)N[C@@H](C)C(=O)N1CCC[C@H]1C(=O)Nc1noc2ccc(-c3ccc(-c4cnc([C@@H]5CCCN5C(=O)[C@H](C)NC(=O)OC)[nH]4)cc3)cc12 [Example 12]
[1]
  EC50: 1 to 100 nM

## COC(=O)N[C@@H](C(=O)N1CCC[C@H]1C(=O)Nc1noc2cc(-c3ccc(-c4cnc([C@@H]5CCCN5C(=O)[C@H](NC(=O)OC)C(C)C)[nH]4)cc3)ccc12)C(C)C [Example 7]
[1]
  EC50: > 100 nM

## COC(=O)N[C@H](C(=O)N1CCC[C@H]1C(=O)Nc1n[nH]c2ccc(-c3ccc(-c4cnc([C@@H]5CCCN5C(=O)[C@@H](NC(=O)OC)[C@@H](C)OC)[nH]4)cc3)cc12)[C@@H](C)OC [Example 33]
[1]
  EC50: > 100 nM
read-out: 1b EC50
  EC50: 1200 nM

## COC(=O)N[C@H](C(=O)N1CCC[C@H]1C(=O)Nc1noc2ccc(-c3ccc(-c4cnc([C@@H]5CCCN5C(=O)[C@@H](NC(=O)OC)[C@@H](C)OC)[nH]4)cc3)cc12)[C@@H](C)OC [Example 14]
[1]
  EC50: 1 to 100 nM
